In US9840508B2, “N-acyl-(3-substituted)-(8-methyl)-5,6-dihydro-[1,2,4]triazolo[4,3-a] pyrazines as selective NK-3 receptor antagonists, pharmaceutical composition, methods for use in NK-3 receptor-mediated disorders” (EUROSCREEN SA, priority 2013, dated 2017):
Where two headings read alike, the source gives them in different places.

Experiments:
human NK-3 receptor [1] = target: T1, human NK-3 receptor (Homo sapiens (Human), UniProt P29371); test: Aequorin functional assay with human NK-3 receptor (antagonist testing); format: cell-based; conditions: CHO cells expressing human NK-3 receptor; agonist NKA at EC80 (3 nM); read-out: Functional assay: Aequorin assay with human NK-3 receptor hNK-3 - AEQ (antagonist IC50)
T1 sequence (P29371 whole entry): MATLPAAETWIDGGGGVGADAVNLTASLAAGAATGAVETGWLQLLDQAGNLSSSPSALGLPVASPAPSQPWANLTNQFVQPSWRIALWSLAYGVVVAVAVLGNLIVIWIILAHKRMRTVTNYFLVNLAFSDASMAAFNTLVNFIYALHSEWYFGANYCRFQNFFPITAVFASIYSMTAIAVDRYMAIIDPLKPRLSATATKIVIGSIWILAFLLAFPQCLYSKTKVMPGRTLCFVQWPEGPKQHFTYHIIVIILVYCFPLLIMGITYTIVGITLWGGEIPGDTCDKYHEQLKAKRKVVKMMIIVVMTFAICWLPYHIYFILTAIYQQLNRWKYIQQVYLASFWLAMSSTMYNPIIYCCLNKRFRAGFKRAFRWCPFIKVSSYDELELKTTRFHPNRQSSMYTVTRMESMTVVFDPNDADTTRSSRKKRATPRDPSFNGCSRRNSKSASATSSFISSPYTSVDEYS
Protocol: Aequorin Assay with Human NK-3 Receptor
Changes in intracellular calcium levels are a recognized indicator of G protein-coupled receptor activity. The efficacy of compounds of the invention to inhibit NKA-mediated NK-3 receptor activation was assessed by an in vitro Aequorin functional assay. Chinese Hamster Ovary recombinant cells expressing the human NK-3 receptor and a construct that encodes the photoproteinapoaequorin were used for this assay. In the presence of the cofactor coelenterazine, apoaequorin emits a measurable luminescence that is proportional to the amount of intracellular (cytoplasmic) free calcium.
The antagonist activity of compounds of the invention is measured following pre-incubation (3 minutes) of the compound (at various concentrations) with the cells, followed by addition of the reference agonist (NKA) at a final concentration equivalent to the EC80 (3 nM) and recording of emitted light (FDSS 6000 Hamamatsu) over the subsequent 90-second period. The intensity of the emitted light is integrated using the reader software. Compound antagonist activity is measured based on the concentration-dependent inhibition of the luminescence response to the addition of Neurokinin A.
The IC50 values shown in Table 2 indicate that compounds of the invention are potent NK-3 antagonist compounds.

human NK-3 receptor [2] = target: T1, human NK-3 receptor; test: 3H-SB222200 binding competition assay with human NK-3 receptor
Protocol: The affinity of compounds of the invention for the human NK-3 receptor was determined by measuring the ability of compounds of the invention to competitively and reversibly displace a well-characterized NK-3 radioligand in a concentration-dependent manner.
^3H-SB222200 Binding Competition Assay with Human NK-3 Receptor
The ability of compounds of the invention to inhibit the binding of the NK-3 receptor selective antagonist ^3H-SB222200 was assessed by an in vitro radioligand binding assay. Membranes were prepared from Chinese hamster ovary recombinant cells stably expressing the human NK-3 receptor. The membranes were incubated with 5 nM ^3H-SB222200 (ARC) in a HEPES 25 mM/NaCl 0.1M/CaCl2 1 mM/MgCl2 5 mM/BSA 0.5%/Saponin 10 μg/ml buffer at pH 7.4 and various concentrations of compounds of the invention. The amount of ^3H-SB222200 bound to the receptor was determined after filtration by the quantification of membrane associated radioactivity using the TopCount-NXT reader (Packard).

human NK-1 receptor = human NK-1 receptor (Homo sapiens (Human), UniProt P25103); test: Selectivity binding assay, human NK-1 ([3H] substance P); conditions: CHO cell membranes; 2 nM [3H] substance P; read-out: hNK-1 (Ki)
human NK-1 receptor, sequence (P25103 whole entry): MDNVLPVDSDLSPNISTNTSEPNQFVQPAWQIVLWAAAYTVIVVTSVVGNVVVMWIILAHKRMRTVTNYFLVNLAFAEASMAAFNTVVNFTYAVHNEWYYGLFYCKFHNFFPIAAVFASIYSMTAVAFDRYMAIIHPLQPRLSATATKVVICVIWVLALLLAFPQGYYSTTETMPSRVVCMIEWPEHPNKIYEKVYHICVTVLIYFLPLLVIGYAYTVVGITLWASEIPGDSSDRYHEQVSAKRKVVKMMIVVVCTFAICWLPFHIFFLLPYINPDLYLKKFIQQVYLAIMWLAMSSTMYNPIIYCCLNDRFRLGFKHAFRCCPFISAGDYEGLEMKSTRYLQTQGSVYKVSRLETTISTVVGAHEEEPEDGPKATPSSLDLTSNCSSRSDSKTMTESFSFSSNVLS
Protocol: (§1) Selectivity of the compounds of the invention was determined over the other human NK receptors, namely NK-1 and NK-2 receptors.
The affinity of compounds of the invention for the NK-1 receptor was evaluated in CHO recombinant cells which express the human NK-1 receptor. Membrane suspensions were prepared from these cells. The following radioligand: [^3H] substance P (PerkinElmer Cat#NET111520) was used in this assay. Binding assays were performed in a 50 mM Tris/5 mM MnCl2/150 mM NaCl/0.1% BSA at pH 7.4. Binding assays consisted of 25 μl of membrane suspension (approximately 5 μg of protein/well in a 96 well plate), 50 μl of compound or reference ligand (Substance P) at increasing concentrations (diluted in assay buffer) and 2 nM [^3H] substance P. The plate was incubated 60 min at 25° C. in a water bath and then filtered over GF/C filters (Perkin Elmer, 6005174, presoaked in 0.5% PEI for 2 h at room temperature) with a Filtration unit (Perkin Elmer). The radioactivity retained on the filters was measured by using the TopCount-NXT reader (Packard). Competition curves were obtained for compounds of the invention and the concentrations of compounds which displaced 50% of bound radioligand (IC50) were determined and then apparent inhibition constant Ki values were calculated by the following equation: Ki=IC50/(1+[L]/KD) where [L] is the concentration of free radioligand and KD is its dissociation constant at the receptor, derived from saturation binding experiments (Cheng and Prusoff, 1973).

human NK-2 receptor = human NK-2 receptor (Homo sapiens (Human), UniProt P21452); test: Selectivity binding assay, human NK-2 ([125I]-Neurokinin A); conditions: CHO cell membranes; 0.1 nM [125I]-Neurokinin A; read-out: hNK-2 (Ki)
human NK-2 receptor, sequence (P21452 whole entry): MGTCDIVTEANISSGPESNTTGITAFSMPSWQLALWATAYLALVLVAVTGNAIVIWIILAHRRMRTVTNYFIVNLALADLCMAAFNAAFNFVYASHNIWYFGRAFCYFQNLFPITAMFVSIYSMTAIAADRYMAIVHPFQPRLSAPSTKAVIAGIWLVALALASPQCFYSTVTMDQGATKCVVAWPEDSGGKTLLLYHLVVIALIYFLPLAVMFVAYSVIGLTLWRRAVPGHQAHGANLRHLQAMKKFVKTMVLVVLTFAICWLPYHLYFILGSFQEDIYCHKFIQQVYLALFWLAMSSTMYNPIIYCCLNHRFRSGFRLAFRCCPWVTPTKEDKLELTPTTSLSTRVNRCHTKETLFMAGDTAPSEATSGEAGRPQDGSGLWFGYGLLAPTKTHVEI
Protocol: as §1
The affinity of compounds of the invention for the NK-2 receptor was evaluated in CHO recombinant cells which express the human NK-2 receptor. Membrane suspensions were prepared from these cells. The following radioligand [^125I]-Neurokinin A (PerkinElmer Cat#NEX252) was used in this assay. Binding assays were performed in a 25 mM HEPES/1 mM CaCl2/5 mM MgCl2/0.5% BSA/10 μg/ml saponin, at pH 7.4. Binding assays consisted of 25 μl of membrane suspension (approximately 3.75 μg of protein/well in a 96 well plate), 50 μl of compound or reference ligand (Neurokinin A) at increasing concentrations (diluted in assay buffer) and 0.1 nM [^125I]-Neurokinin A. The plate was incubated 60 min at 25° C. in a water bath and then filtered over GF/C filters (Perkin Elmer, 6005174, presoaked in assay buffer without saponine for 2 h at room temperature) with a Filtration unit (Perkin Elmer). The radioactivity retained on the filters was measured by using the TopCount-NXT reader (Packard). Competition curves were obtained for compounds of the invention and the concentrations of compounds which displaced 50% of bound radioligand (IC50) were determined and then apparent inhibition constant Ki values were calculated by the following equation: Ki=IC50/(1+[L]/KD) where [L] is the concentration of free radioligand and KD is its dissociation constant at the receptor, derived from saturation binding experiments (Cheng and Prusoff, 1973).

plasma protein = test: Determination of plasma protein binding (rapid equilibrium dialysis); format: in vitro ADME; conditions: 4 hours at 37° C.
Text: Determination of Plasma Protein Binding
The pharmacokinetic and pharmacodynamic properties of chemicals/drugs are largely a function of the reversible binding of chemicals to plasma or serum proteins. Generally, only the unbound or “free fraction” of a drug is available for diffusion or transport across cell membranes, and for interaction with a pharmacological/toxicological target. Consequently, the extent of the plasma protein binding (PPB) of a compound influences its action as well as its distribution and elimination.
The determination of plasma protein binding (PPB) of a compound is enabled by equilibrium dialysis, an accepted and standard method for reliable estimation of the non-bound drug fraction in plasma. RED (Rapid Equilibrium Dialysis) device insert is made of two side-by-side chambers separated by an O-ring-sealed vertical cylinder of dialysis membrane (MWCO˜8,000). Plasma containing drug (at 5 μM or blood concentrations otherwise corresponding to efficacious doses, if known) is added to one chamber while buffer is added to the second. After 4 hours incubation at 37° C. under shaking, an aliquot is removed from each chamber and analyzed by a LC-MS/MS procedure enables the determination of both free and bound drug.
The percentages provided in Table 4 represent for the compounds of the invention the bound drug fraction to the plasma protein. The “free fraction” may be calculated as 100%−% rPPB (i.e. the complementary percentage of that disclosed in Table 4, corresponding to the drug concentration that is unbound and therefore available to engage biological target and elicit pharmacological activity).

[3] = CHO cell membranes, 5 nM 3H-SB222200, Table 2, read-out: Competitive binding assay with human NK-3 receptor hNK-3 (Ki)
[4] = Table 3 (selectivity table), read-out: hNK-3 (Ki)

| IC50 (human NK-3 receptor [1]) | Ki (human NK-3 receptor [2]; [3]) | Ki (human NK-3 receptor [2]; [4]) | Ki (human NK-1 receptor) | Ki (human NK-2 receptor) | Exposure (% rPPB), bound drug fraction to the plasma protein (plasma protein) | SMILES |
| --- | --- | --- | --- | --- | --- | --- |
| 0.053 µM | 0.038 µM | 0.038 µM | 13 µM | 14 µM | 68% | Cc1ccc(-c2nnc3n2CCN(C(=O)c2ccc(Cl)c(F)c2)[C@@H]3C)o1 [Compound 9, (R)-(4-chloro-3-fluorophenyl)(8-methyl-3-(5-methylfuran-2-yl)-5,6-dihydro-[1,2,4]triazolo[4,3-a]pyrazin-7(8H)-yl)methanone] |
| 0.072 µM | 0.052 µM | 0.052 µM | > 30 µM | 30 µM | 30% | Cc1ccc(-c2nnc3n2CCN(C(=O)c2cc(F)c(F)c(F)c2F)[C@@H]3C)o1 [Compound 4, (R)-(8-methyl-3-(5-methylfuran-2-yl)-5,6-dihydro-[1,2,4]triazolo[4,3-a]pyrazin-7(8H)-yl)(2,3,4,5-tetrafluorophenyl)methanone] |
| 0.057 µM | 0.033 µM | 0.033 µM | 27 µM | 21 µM | 26% | Cc1ccc(-c2nnc3n2CCN(C(=O)c2cc(F)c(F)c(F)c2)[C@@H]3C)o1 [Compound 7, (R)-(8-methyl-3-(5-methylfuran-2-yl)-5,6-dihydro-[1,2,4]triazolo[4,3-a]pyrazin-7(8H)-yl)(3,4,5-trifluorophenyl)methanone] |
| 0.026 µM | 0.02 µM | 0.02 µM | 21 µM | 7 µM | 51% | C[C@@H]1c2nnc(-c3csc(C(F)(F)F)n3)n2CCN1C(=O)c1ccc(F)c(F)c1 [Compound 13, (R)-(3,4-difluorophenyl)(8-methyl-3-(2-(trifluoromethyl)thiazol-4-yl)-5,6-dihydro-[1,2,4]triazolo[4,3-a]pyrazin-7(8H)-yl)methanone] |
| 0.062 µM | 0.044 µM | 0.044 µM | 18 µM | 9.1 µM | 47% | Cc1ccc(-c2nnc3n2CCN(C(=O)c2ccc(F)c(Cl)c2)[C@@H]3C)o1 [Compound 8, (R)-(3-chloro-4-fluorophenyl)(8-methyl-3-(5-methylfuran-2-yl)-5,6-dihydro-[1,2,4]triazolo[4,3-a]pyrazin-7(8H)-yl)methanone] |
